Where “and” joins values, the source holds several entries; their conditions need not be identical. Equal entries are not always repeated. Where two headings read alike, the source gives them in different places.
Assays:
[1] = system: HIV-1LAI; experiment: In vitro antiviral assay, MT-2 cells exposed to HIV-1LAI, MTT assay; format: cell-based; conditions: for loss of antiviral activity (higher IC50) compared to 22: relative to inhibitor 22
[2] = target: T1, HIV-1 protease (Human immunodeficiency virus type 1 group M subtype B, UniProt P04585); experiment: HIV-1 protease enzyme inhibitory assay (protocol of Toth and Marshall); format: biochemical
T1 construct: The HIV aspartic protease plays a central role in the life cycle of the virus; It cleaves the virally encoded polyprotein
From the text: Inhibitors were designed to make additional interactions in the S2-subsite of the protease, especially with the Gly48 backbone atoms in the flap region of the enzyme. All inhibitors in Table 1 were first evaluated in the enzyme inhibitory assay developed by Toth and Marshall (Toth and Marshall, Int. J. Pept. Protein Res. 1990, 36, 544-550). […] The 3-(S)-hydroxy Cp-THF ligand was also investigated in combination with other sulfonamide substituents.
All inhibitors were first tested for their enzyme inhibitory potency using the assay protocol developed by Toth and Marshall.

[3] = system: HIV-1MDR/TM; experiment: microbe, parasite or virus in culture; format: cell-based; conditions: for IC50: Human immunodeficiency virus 1, read-out: IC50 ± SDs
[4] = system: HIV-1MDR/G; experiment: microbe, parasite or virus in culture; format: cell-based; conditions: for IC50: Human immunodeficiency virus 1, read-out: IC50 ± SDs
[5] = system: HIV-1MDR/B; experiment: microbe, parasite or virus in culture; format: cell-based; conditions: for IC50: Human immunodeficiency virus 1, read-out: IC50 ± SDs
[6] = system: HIV-1ERS104pre (wild type); experiment: Antiviral assay in PHA-PBMs, inhibition of p24 Gag protein production, wild-type isolate; format: cell-based
[7] = system: HIV-1MDR/C; experiment: microbe, parasite or virus in culture; format: cell-based; conditions: for IC50: Human immunodeficiency virus 1, read-out: IC50 ± SDs
[8] = Human immunodeficiency virus 1, MT2, read-out: ID50, Table 2, antiviral activity
[9] = Human immunodeficiency virus 1, MT2, Table 1, MT-2 cells, 100 TCID50s of HIV-1LAI, MTT assay, means of at least two experiments
[10] = Human immunodeficiency virus 1, MT2, read-out: antiviral IC50
[11] = read-out: Ki / enzyme inhibitory potency

CON[C@@H]1CO[C@@H]2C[C@H](OC(=O)N[C@@H](Cc3ccccc3)[C@H](O)CN(CC(C)C)S(=O)(=O)c3ccc(OC)cc3)C[C@H]12
IC50 [1, 8]: 81.5 nM | Ki ([2]; Table 2, read-out: Ki): 0.088 nM

COc1ccc(S(=O)(=O)N(CC(C)C)C[C@@H](O)[C@H](Cc2ccccc2)NC(=O)O[C@@H]2C[C@@H]3[C@H](N(C)C)CO[C@@H]3C2)cc1
Ki ([2]; Table 2, read-out: Ki): 12.7 nM

COc1ccc(S(=O)(=O)N(CC(C)C)C[C@@H](O)[C@H](Cc2ccccc2)NC(=O)O[C@@H]2C[C@H]3[C@@H](C2)OC[C@H]3OC(=O)N(C)C)cc1
IC50 [1, 8]: 4.7 nM | Ki ([2]; Table 2, read-out: Ki): 0.02 nM

CC(C)CN(C[C@@H](O)[C@H](Cc1ccccc1)NC(=O)O[C@H]1CCOC1)S(=O)(=O)c1ccc(N)cc1 [APV, amprenavir, reference compound]
IC50 [3]: 190 ± 60 nM | fold change of IC50 ([3]; Table 3, HIV-1MDR/TM compared to wild-type HIV-1ERS104pre): 6 | IC50 [4]: 380 ± 30 nM | fold change of IC50 ([4]; Table 3, HIV-1MDR/G compared to wild-type HIV-1ERS104pre): 12 | IC50 [5]: 930 ± 280 nM | fold change of IC50 ([5]; Table 3, HIV-1MDR/B compared to wild-type HIV-1ERS104pre): 31 | IC50 ([6]; Human immunodeficiency virus 1, Table 3, HIV-1ERS104pre (wild type), PHA-PBMs, p24 Gag, read-out: IC50 ± SDs): 30 ± 6 nM | IC50 [7]: 260 ± 30 nM | fold change of IC50 ([7]; Table 3, HIV-1MDR/C compared to wild-type HIV-1ERS104pre): 9

COc1ccc(S(=O)(=O)N(CC(C)C)C[C@@H](O)[C@H](Cc2ccccc2)NC(=O)O[C@@H]2C[C@@H]3C(=O)CO[C@@H]3C2)cc1 [Inhibitor 19a, (3aS,5R,6aR)-3-oxohexahydro-2H-cyclopenta[b]furan-5-yl (2S,3R)-3-hydroxy-4-(N-isobutyl-4-methoxyphenylsulfonamido)-1-phenylbutan-2-ylcarbamate]
IC50 ([1]; Human immunodeficiency virus 1, MT2, Table 1, MT-2 cells, 100 TCID50s of HIV-1LAI, MTT assay, means of at least two experiments, read-out: IC50): 14 nM | Ki ([2]; Table 1, read-out: Ki): 0.95 nM

COc1ccc(S(=O)(=O)N(CC(C)C)C[C@@H](O)[C@H](Cc2ccccc2)NC(=O)O[C@@H]2C[C@@H]3[C@H](OC)CO[C@@H]3C2)cc1 [Inhibitor 19b, (3S,3aS,5R,6aR)-3-Methoxyhexahydro-2H-cyclopenta[b]furan-5-yl [(2S,3R)-3-Hydroxy-4-(N-iso-butyl-4-methoxyphenylsulfonamido)-1-phenylbutan-2-yl]carbamate]
IC50 [1, 9]: 37 nM | IC50 [1, 10]: 37 nM | loss of antiviral activity (higher IC50) compared to 22 [1]: ~5 fold and ~7 fold | Ki ([2]; Table 1, read-out: Ki): 0.39 nM | Ki ([2]; read-out: Ki): 0.95 nM

COc1ccc(S(=O)(=O)N(CC(C)C)C[C@@H](O)[C@H](Cc2ccccc2)NC(=O)O[C@@H]2C[C@@H]3[C@H](C)CO[C@@H]3C2)cc1 [Inhibitor 19e, (3S,3aR,5R,6aR)-3-Methylhexahydro-2H-cyclopenta[b]furan-5-yl [(2S,3R)-3-Hydroxy-4-(N-iso-butyl-4-methoxyphenylsulfonamido)-1-phenylbutan-2-yl]carbamate]
IC50 [1, 9]: 25 nM | loss of antiviral activity (higher IC50) compared to 22 [1]: 5 fold | Ki ([2]; Table 1, read-out: Ki): 0.02 nM and 0.16 nM

COc1ccc(S(=O)(=O)N(CC(C)C)C[C@@H](O)[C@H](Cc2ccccc2)NC(=O)O[C@@H]2C[C@@H]3[C@@H](C)CO[C@@H]3C2)cc1 [Inhibitor 19f, (3R,3aR,5R,6aR)-3-Methylhexahydro-2H-cyclopenta[b]furan-5-yl [(2S,3R)-3-Hydroxy-4-(N-isobutyl-4-methoxyphenylsulfonamido)-1-phenylbutan-2-yl]carbamate]
Ki ([2]; Table 1, read-out: Ki): 0.017 nM

COc1ccc(S(=O)(=O)N(CC(C)C)C[C@@H](O)[C@H](Cc2ccccc2)NC(=O)O[C@@H]2C[C@@H]3[C@H](NC(C)=O)CO[C@@H]3C2)cc1 [Inhibitor 19g, (3S,3aR,5R,6aR)-3-acetamidohexahydro-2H-cyclopenta[b]furan-5-yl (2S,3R)-3-hydroxy-4-(N-isobutyl-4-methoxyphenylsulfonamido)-1-phenylbutan-2-yl-carbamate]
IC50 [1, 8]: 21.5 nM | IC50 [1, 10]: 25 nM | Ki [2, 11]: 0.007 nM

COc1ccc(S(=O)(=O)N(CC(C)C)C[C@@H](O)[C@H](Cc2ccccc2)NC(=O)O[C@@H]2C[C@@H]3[C@@H](NC(C)=O)CO[C@@H]3C2)cc1 [Inhibitor 19h, (3′R,3′aR,5′R,6′aR)-3-acetamidohexahydro-2H-cyclopenta[b]furan-5-yl (2S,3R)-3-hydroxy-4-(N-isobutyl-4-methoxyphenylsulfonamido)-1-phenylbutan-2-yl-carbamate]
IC50 [1, 8]: 31 nM | IC50 [1, 10]: 31 nM | Ki ([2]; Table 2, read-out: Ki): 0.0075 nM | Ki [2, 11]: 0.007 nM

COc1ccc(S(=O)(=O)N(CC(C)C)C[C@@H](O)[C@H](Cc2ccccc2)NC(=O)O[C@@H]2C[C@@H]3[C@H](NS(C)(=O)=O)CO[C@@H]3C2)cc1 [Inhibitor 19i, (3S,3aR,5R,6aR)-3-(methylsulfonamido)hexahydro-2H-cyclopenta[b]furan-5-yl ((2S,3R)-3-hydroxy-4-(N-isobutyl-4-methoxyphenylsulfonamido)-1-phenylbutan-2-yl)-carbamate]
IC50 [1, 8]: 28 nM | Ki ([2]; Table 2, read-out: Ki): 0.017 nM and 0.032 nM

COc1ccc(S(=O)(=O)N(CC(C)C)C[C@@H](O)[C@H](Cc2ccccc2)NC(=O)O[C@@H]2C[C@@H]3[C@@H](NS(C)(=O)=O)CO[C@@H]3C2)cc1 [Inhibitor 19j, (3R,3aR,5R,6aR)-3-(methylsulfonamido)hexahydro-2H-cyclopenta[b]furan-5-yl ((2S,3R)-3-hydroxy-4-(N-isobutyl-4-methoxyphenylsulfonamido)-1-phenylbutan-2-yl) carbamate]
IC50 [1, 8]: 50 nM | Ki ([2]; Table 2, read-out: Ki): 0.18 nM

COc1ccc(S(=O)(=O)N(CC(C)C)C[C@@H](O)[C@H](Cc2ccccc2)NC(=O)O[C@@H]2C[C@@H]3[C@H](O)CO[C@@H]3C2)cc1 [Inhibitor 22, (3S,3aR,5R,6aR)-3-hydroxyhexahydro-2H-cyclopenta[b]furan-5-yl (2S,3R)-3-hydroxy-4-(4-(methoxy)-N-isobutylphenylsulfonamido)-1-phenylbutan-2-ylcarbamate]
IC50 [3]: 41 ± 4 nM | IC50 [4]: 270 ± 20 nM | IC50 [1, 9]: 5 nM | IC50 [1, 10]: 5 nM | IC50 ([1]; Table 1, MT-2 cells, 100 TCID50s of HIV-1LAI, MTT assay, means of at least two experiments): 7 nM | IC50 [5]: > 1000 nM | IC50 ([6]; Human immunodeficiency virus 1): 20 nM | IC50 ([6]; Human immunodeficiency virus 1, read-out: IC50 ± SDs): 20 ± 4 nM | IC50 [7]: > 1000 nM

CC(C)CN(C[C@@H](O)[C@H](Cc1ccccc1)NC(=O)O[C@@H]1C[C@@H]2[C@H](O)CO[C@@H]2C1)S(=O)(=O)c1ccc(CO)cc1 [Inhibitor 23, (3S,3aR,5R,6aR)-3-Hydroxyhexahydro-2H-cyclopenta[b]furan-5-yl {(2S,3R)-3-Hydroxy-4-[4-(hydroxymethyl)-N-iso-butylphenylsulfonamido]-1-phenylbutan-2-yl}carbamate]
IC50 [1, 9]: 19 nM | loss of antiviral activity (higher IC50) compared to 22 [1]: 4 fold | Ki ([2]; Table 1, read-out: Ki): 0.06 nM

CC(C)CN(C[C@@H](O)[C@H](Cc1ccccc1)NC(=O)O[C@@H]1C[C@@H]2[C@@H](O)CO[C@@H]2C1)S(=O)(=O)c1ccc(N)cc1 [Inhibitor 26, (3R,3aR,5R,6aR)-3-Hydroxyhexahydro-2H-cyclopenta[b]furan-5-yl [(2S,3R)-4-(4-Amino-N-iso-butylphenylsulfonamido)-3-hydroxy-1-phenylbutan-2-yl]-carbamate]
IC50 [1, 9]: 36 nM | Ki ([2]; Table 1, read-out: Ki): 0.006 nM

CC(C)CN(C[C@@H](O)[C@H](Cc1ccccc1)NC(=O)O[C@@H]1C[C@@H]2[C@H](O)CO[C@@H]2C1)S(=O)(=O)c1ccc(N)cc1 [Inhibitor 123, (3S,3aR,5R,6aR)-3-Hydroxyhexahydro-2H-cyclopenta[b]furan-5-yl [(2S,3R)-4-(4-Amino-N-isobutylphenylsulfonamido)-3-hydroxy-1-phenylbutan-2-yl]carbamate]
loss of antiviral activity (higher IC50) compared to 22 [1]: 3 fold

CC(C)(C)NC(=O)[C@@H]1C[C@@H]2CCCC[C@@H]2CN1C[C@@H](O)[C@H](Cc1ccccc1)NC(=O)[C@H](CC(N)=O)NC(=O)c1ccc2ccccc2n1 [SQV, saquinavir, reference compound]
IC50 [1, 9]: 15 nM

CC(C)CN(C[C@@H](O)[C@H](Cc1ccccc1)NC(=O)O[C@@H]1C[C@@H]2[C@H](O)CO[C@@H]2C1)S(=O)(=O)c1ccc(N)cc1 [drawing 10]
IC50 [1, 9]: 25 nM | Ki ([2]; Table 1, read-out: Ki): 0.079 nM

COC(=O)N[C@@H]1CO[C@@H]2C[C@H](OC(=O)N[C@@H](Cc3ccccc3)[C@H](O)CN(CC(C)C)S(=O)(=O)c3ccc(OC)cc3)C[C@H]12 [drawing 23]
IC50 [1, 8]: 1.6 nM

COC(=O)N[C@H]1CO[C@@H]2C[C@H](OC(=O)N[C@@H](Cc3ccccc3)[C@H](O)CN(CC(C)C)S(=O)(=O)c3ccc(OC)cc3)C[C@H]12 [drawing 24]
IC50 [1, 8]: 4.6 nM | Ki ([2]; Table 2, read-out: Ki): 0.004 nM

((3R,3aS,5R,6aR)-3-Methoxyhexahydro-2H-cyclopenta[b]furan-5-yl [(2S,3R)-3-Hydroxy-4-(N-iso-butyl-4-methoxyphenylsulfonamido)-1-phenylbutan-2-yl]-carbamate [Inhibitor 19d]
IC50 ([1]; Table 1, MT-2 cells, 100 TCID50s of HIV-1LAI, MTT assay, means of at least two experiments, read-out: IC50): 3.4 nM | Ki [2, 11]: 0.006 nM

From patent publication US9309213B2, “C-3 substituted bicyclooctane based HIV protease inhibitors” (Purdue Research Foundation, priority 2011, dated 2016)
